From BindingDB's records for doi:10.1158/1535-7163.MCT-05-0442 (Celera Genomics, 2006)

Target: Histone deacetylase 1 (Homo sapiens, UniProt Q13547)
Assay: HDAC Inhibition Assay
Conditions: pH 7.4; 22 °C
Procedure: HDAC activity was measured using a continuous trypsin-coupled assay. For inhibitor characterization, measurements were done using 96-well assay plates. Enzyme was mixed with inhibitor at various concentrations and allowed to incubate for 15 minutes. […] Reactions were monitored in a fluorescence plate reader. […] The increase in fluorescence with time was used as the measure of the reaction rate. Inhibition constants Ki(app) were obtained using the program BatchKi.

Histone deacetylase 1, sequence (Q13547 whole entry): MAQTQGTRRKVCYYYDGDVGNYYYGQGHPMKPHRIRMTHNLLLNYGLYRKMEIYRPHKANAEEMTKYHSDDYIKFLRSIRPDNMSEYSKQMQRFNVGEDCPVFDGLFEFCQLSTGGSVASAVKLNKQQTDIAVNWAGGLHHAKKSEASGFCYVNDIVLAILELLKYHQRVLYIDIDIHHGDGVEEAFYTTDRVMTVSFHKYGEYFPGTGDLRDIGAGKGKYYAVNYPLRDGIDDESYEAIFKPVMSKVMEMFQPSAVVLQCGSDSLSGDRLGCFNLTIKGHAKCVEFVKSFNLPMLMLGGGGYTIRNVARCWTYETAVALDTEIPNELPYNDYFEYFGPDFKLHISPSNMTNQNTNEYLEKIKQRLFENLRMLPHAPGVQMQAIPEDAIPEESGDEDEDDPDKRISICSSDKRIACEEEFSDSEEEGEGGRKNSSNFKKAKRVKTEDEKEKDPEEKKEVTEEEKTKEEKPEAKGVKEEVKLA

Ki [nM]	Compound
> 50000	CN(C)Cc1c(C(=O)NCCOc2ccc(C(=O)O)cc2)oc2ccccc12 [4-[2-({3-[(dimethylamino)methyl]-1-benzofuran-2-yl}formamido)ethoxy]benzoic acid]
6	O=C(NO)c1ccc(OCCNC(=O)c2ccc3ccccc3c2)cc1 [N-{2-[4-(hydroxycarbamoyl)phenoxy]ethyl}naphthalene-2-carboxamide]
43	O=C(NO)c1ccc(OCCNC(=O)c2ccccc2)cc1 [N-hydroxy-4-[2-(phenylformamido)ethoxy]benzamide]
4	O=C(NO)c1ccc(OCCNC(=O)c2cc3ccccc3o2)cc1 [N-{2-[4-(hydroxycarbamoyl)phenoxy]ethyl}-1-benzofuran-2-carboxamide]
